Data taken from ChEMBL document CHEMBL6071193, “Structure-Activity Relationship of Potent, Selective, and Orally Bioavailable Molecular Glue Degraders of CK1α” (ACS Med Chem Lett, 2024).
pEC50, pIC50: −log10 of the molar value. In brackets after ≈: the same amount, converted by molar mass. Activity calls are given as the source filed them. The rule behind the calls is not given here.

How the values were obtained:
[1] = target: T1, Cereblon/Casein kinase I alpha (Homo sapiens, UniProt P48729+Q96SW2); assay: PROTAC activity at CRBN/HiBiT-tagged CK1alpha in HEK293 cells transfected with LgBiT expression vector assessed as induction of CK1alpha degradation by measuring maximal efficacy at 10 uM measured after 24 hrs by luminescence based GloMax Discover assay relative to control; format: cell-based
Target sequence in this assay (P48729 2-337 limits assumed): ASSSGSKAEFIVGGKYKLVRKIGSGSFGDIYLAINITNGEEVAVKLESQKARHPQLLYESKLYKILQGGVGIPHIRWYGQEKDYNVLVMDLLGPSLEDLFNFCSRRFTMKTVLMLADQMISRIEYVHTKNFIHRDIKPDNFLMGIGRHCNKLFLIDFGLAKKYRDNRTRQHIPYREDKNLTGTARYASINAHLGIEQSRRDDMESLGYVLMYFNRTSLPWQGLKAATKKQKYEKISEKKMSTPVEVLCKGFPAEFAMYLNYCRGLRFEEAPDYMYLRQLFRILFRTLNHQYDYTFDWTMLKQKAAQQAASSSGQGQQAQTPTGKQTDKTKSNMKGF
Target sequence in this assay (Q96SW2 whole entry partner): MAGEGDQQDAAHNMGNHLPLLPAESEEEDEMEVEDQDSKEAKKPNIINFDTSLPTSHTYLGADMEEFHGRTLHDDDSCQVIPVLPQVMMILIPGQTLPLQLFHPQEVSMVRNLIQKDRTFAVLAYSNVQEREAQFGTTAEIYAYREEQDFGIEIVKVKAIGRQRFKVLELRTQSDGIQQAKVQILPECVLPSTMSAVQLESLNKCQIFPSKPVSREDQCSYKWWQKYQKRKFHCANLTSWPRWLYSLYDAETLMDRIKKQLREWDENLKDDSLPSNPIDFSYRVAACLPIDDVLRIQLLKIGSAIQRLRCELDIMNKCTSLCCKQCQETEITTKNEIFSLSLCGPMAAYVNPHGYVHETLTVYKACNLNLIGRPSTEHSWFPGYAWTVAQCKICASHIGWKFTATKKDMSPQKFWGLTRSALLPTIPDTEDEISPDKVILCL

[2] = target: T1, Cereblon/Casein kinase I alpha; assay: PROTAC activity at CRBN/HiBiT-tagged CK1alpha in HEK293 cells transfected with LgBiT expression vector assessed as induction of CK1alpha degradation measured after 24 hrs by luminescence based GloMax Discover assay; format: cell-based
Target sequence in this assay (P48729 whole entry): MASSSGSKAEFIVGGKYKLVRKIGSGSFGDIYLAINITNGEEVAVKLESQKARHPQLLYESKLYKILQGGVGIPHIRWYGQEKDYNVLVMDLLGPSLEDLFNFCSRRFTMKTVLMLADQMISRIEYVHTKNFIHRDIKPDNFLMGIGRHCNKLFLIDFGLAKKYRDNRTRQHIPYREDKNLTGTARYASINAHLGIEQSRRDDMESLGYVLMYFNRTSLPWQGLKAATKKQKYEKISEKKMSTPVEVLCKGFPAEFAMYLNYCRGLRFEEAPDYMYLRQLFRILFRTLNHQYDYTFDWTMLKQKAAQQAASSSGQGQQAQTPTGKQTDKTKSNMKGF
Target sequence in this assay (Q96SW2 whole entry): as the sequence (Q96SW2 whole entry partner) above

[3] = target: T2, Cereblon/Ikaros (Homo sapiens, UniProt Q96SW2+Q13422); assay: PROTAC activity at CRBN/HiBiT-tagged IKZF1 in human Jurkat cells transfected with LgBiT expression vector assessed as induction of IKZF1 degradation by measuring maximal efficacy at 10 uM measured after 24 hrs by luminescence based GloMax Discover assay relative to control; format: cell-based
T2 sequence (Q96SW2 whole entry): as the sequence (Q96SW2 whole entry partner) above
T2 sequence (Q13422 whole entry): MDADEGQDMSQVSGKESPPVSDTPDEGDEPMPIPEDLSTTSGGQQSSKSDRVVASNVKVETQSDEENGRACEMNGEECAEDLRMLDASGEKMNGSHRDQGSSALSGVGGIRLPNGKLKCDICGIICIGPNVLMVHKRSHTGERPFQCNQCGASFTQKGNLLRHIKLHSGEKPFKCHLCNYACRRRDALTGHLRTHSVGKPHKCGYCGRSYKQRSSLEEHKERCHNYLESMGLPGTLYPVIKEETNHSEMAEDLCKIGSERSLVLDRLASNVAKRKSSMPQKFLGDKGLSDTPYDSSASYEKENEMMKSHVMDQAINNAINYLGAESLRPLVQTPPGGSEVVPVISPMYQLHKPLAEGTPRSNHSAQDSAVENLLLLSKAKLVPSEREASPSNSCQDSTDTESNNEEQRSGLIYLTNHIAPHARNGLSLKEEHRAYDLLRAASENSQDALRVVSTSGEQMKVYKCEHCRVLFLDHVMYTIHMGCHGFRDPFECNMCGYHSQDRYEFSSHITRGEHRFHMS

[4] = target: T2, Cereblon/Ikaros; assay: PROTAC activity at CRBN/HiBiT-tagged IKZF1 in human Jurkat cells transfected with LgBiT expression vector assessed as induction of IKZF1 degradation measured after 24 hrs by luminescence based GloMax Discover assay; format: cell-based
[5] = target: Protein cereblon/DNA damage-binding protein 1 (Homo sapiens) (UniProt Q96SW2+Q16531); assay: Binding affinity to 6-His tagged CRBN/DDB1 (unknown origin) incubated for 1 hrs in presence of Cy5-O-Len probe by fluorescence polarization assay; format: protein assay
Sequence of Protein cereblon/DNA damage-binding protein 1 (Homo sapiens) (Q16531 2-1140 partner limits assumed): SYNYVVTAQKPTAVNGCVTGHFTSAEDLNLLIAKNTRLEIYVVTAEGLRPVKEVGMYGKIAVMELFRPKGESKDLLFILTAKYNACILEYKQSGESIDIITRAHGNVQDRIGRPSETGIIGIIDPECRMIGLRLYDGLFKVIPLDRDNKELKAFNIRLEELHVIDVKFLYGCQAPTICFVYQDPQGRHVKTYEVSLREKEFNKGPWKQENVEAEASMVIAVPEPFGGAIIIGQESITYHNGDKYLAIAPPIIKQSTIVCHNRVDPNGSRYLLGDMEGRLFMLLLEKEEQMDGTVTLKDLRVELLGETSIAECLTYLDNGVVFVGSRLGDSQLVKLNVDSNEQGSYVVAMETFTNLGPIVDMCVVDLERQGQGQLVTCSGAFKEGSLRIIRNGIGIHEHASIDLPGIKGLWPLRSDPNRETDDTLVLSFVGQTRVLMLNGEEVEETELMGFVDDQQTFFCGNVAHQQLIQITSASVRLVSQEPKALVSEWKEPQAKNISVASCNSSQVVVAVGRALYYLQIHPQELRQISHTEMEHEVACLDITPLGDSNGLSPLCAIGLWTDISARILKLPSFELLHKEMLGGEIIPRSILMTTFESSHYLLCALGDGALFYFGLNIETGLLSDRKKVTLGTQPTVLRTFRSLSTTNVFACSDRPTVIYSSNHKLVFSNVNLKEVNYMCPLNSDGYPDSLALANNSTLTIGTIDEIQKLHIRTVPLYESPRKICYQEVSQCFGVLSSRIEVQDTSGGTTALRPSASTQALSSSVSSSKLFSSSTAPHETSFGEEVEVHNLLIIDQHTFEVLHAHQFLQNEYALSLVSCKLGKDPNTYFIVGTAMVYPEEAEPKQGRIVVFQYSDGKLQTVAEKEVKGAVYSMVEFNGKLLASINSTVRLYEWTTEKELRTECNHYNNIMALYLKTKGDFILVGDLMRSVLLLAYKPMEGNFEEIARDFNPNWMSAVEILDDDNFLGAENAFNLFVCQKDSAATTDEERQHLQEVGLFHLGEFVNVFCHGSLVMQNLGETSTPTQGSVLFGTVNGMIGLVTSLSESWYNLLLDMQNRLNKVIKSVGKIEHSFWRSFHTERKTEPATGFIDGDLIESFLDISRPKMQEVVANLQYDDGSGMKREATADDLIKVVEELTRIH
Sequence of Protein cereblon/DNA damage-binding protein 1 (Homo sapiens) (Q96SW2 whole entry): as the sequence (Q96SW2 whole entry partner) above

[6] = target: T1, Cereblon/Casein kinase I alpha; assay: Binding affinity to Halo-tagged CRBN (unknown origin)/HiBiT-tagged CK1alpha in HEK293 cells transfected with LgBiT expression vector assessed as ternary complex formation by measuring fold increase in NanoBRET signal preincubated with MG132 for 30 mins followed by compound addition and measured after 2 hrs by NanoBRET assay relative to control; format: cell-based
Target sequence in this assay (P48729 2-337 limits assumed): as the sequence (P48729 2-337 limits assumed) above
Target sequence in this assay (Q96SW2 whole entry partner): as the sequence (Q96SW2 whole entry partner) above

[7] = target: T1, Cereblon/Casein kinase I alpha; assay: Binding affinity to Halo-tagged CRBN (unknown origin)/HiBiT-tagged CK1alpha in HEK293 cells transfected with LgBiT expression vector assessed as ternary complex formation preincubated with MG132 for 30 mins followed by compound addition and measured after 2 hrs by NanoBRET assay; format: cell-based
Target sequence in this assay (P48729 whole entry): as the sequence (P48729 whole entry) above
Target sequence in this assay (Q96SW2 whole entry): as the sequence (Q96SW2 whole entry partner) above

[8] = target: T2, Cereblon/Ikaros; assay: Binding affinity to Halo-tagged CRBN (unknown origin)/HiBiT-tagged IKZF1 in human Jurkat cells transfected with LgBiT expression vector assessed as ternary complex formation by measuring fold increase in NanoBRET signal preincubated with MG132 for 30 mins followed by compound addition and measured after 2 hrs by NanoBRET assay relative to control; format: cell-based
[9] = target: Cereblon/Ikaros (Homo sapiens, UniProt Q13422+Q96SW2); assay: Binding affinity to Halo-tagged CRBN (unknown origin)/HiBiT-tagged IKZF1 in human Jurkat cells transfected with LgBiT expression vector assessed as ternary complex formation preincubated with MG132 for 30 mins followed by compound addition and measured after 2 hrs by NanoBRET assay; format: cell-based
Sequence of Cereblon/Ikaros (Homo sapiens, UniProt Q13422+Q96SW2) (Q96SW2 whole entry): as the sequence (Q96SW2 whole entry partner) above
Sequence of Cereblon/Ikaros (Homo sapiens, UniProt Q13422+Q96SW2) (Q13422 whole entry): as the sequence (Q13422 whole entry) above

[10] = target: T1, Cereblon/Casein kinase I alpha; assay: PROTAC activity at CRBN/HiBiT-tagged CK1alpha in HEK293 cells transfected with LgBiT expression vector assessed as induction of CK1alpha degradation by measuring degradation rate at 10 uM measured after 24 hrs by luminescence based GloMax Discover assay; format: cell-based
Target sequence in this assay (P48729 2-337 limits assumed): as the sequence (P48729 2-337 limits assumed) above
Target sequence in this assay (Q96SW2 whole entry partner): as the sequence (Q96SW2 whole entry partner) above

[11] = test system: MOLM-13; assay: Antiproliferative activity against human MOLM-13 cells incubated for 72 hrs by Cell-Titer Glo assay; format: functional, cell-based; conditions: MOLM-13, 72 h
[12] = target: Protein cereblon/Eukaryotic peptide chain release factor GTP-binding subunit ERF3A (Homo sapiens) (UniProt Q96SW2+P15170); assay: PROTAC activity at CRBN (unknown origin)/human HiBiT-tagged GSPT1 transfected in HEK293 cells assessed as induction of GSPT1 degradation measured after 24 hrs by Nano-Glo reagent based luminescence analysis; format: cell-based
Sequence of Protein cereblon/Eukaryotic peptide chain release factor GTP-binding subunit ERF3A (Homo sapiens) (P15170 whole entry, looked up): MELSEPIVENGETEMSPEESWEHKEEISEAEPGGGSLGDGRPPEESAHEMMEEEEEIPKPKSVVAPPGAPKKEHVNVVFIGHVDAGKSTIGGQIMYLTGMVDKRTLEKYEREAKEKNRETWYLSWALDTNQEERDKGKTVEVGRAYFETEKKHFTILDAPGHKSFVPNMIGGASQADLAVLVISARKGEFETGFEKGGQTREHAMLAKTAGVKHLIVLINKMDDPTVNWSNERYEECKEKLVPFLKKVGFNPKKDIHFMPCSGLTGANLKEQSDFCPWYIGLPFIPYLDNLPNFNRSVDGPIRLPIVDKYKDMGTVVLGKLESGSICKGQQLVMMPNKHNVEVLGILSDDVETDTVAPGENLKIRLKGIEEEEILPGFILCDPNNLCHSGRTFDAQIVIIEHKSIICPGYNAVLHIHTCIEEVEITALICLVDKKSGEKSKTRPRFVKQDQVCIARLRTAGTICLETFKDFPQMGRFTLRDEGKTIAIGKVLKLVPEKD
Sequence of Protein cereblon/Eukaryotic peptide chain release factor GTP-binding subunit ERF3A (Homo sapiens) (Q96SW2 whole entry, looked up): as the sequence (Q96SW2 whole entry partner) above

[13] = test system: HEK293; assay: Cytotoxicity against HEK293 cells expressing HiBiT-tagged CK1alpha at 0.0001 to 100 uM measured over 24 hrs by Cell-Titer Glo assay; format: toxicity, cell-based; conditions: human, hek293, 24 h, dose 0.0001-100 µM
[14] = test system: Jurkat; assay: Cytotoxicity against human Jurkat cells expressing HiBiT-tagged IKZF1 at 0.0001 to 100 uM measured over 24 hrs by Cell-Titer Glo assay; format: toxicity, cell-based; conditions: dose 0.0001-100 µM
[15] = Stability in human plasma assessed as half-life at 10 uM measured upto 48 hrs by UPLC-MS/MS analysis; format: ADME, cell-free
[16] = Stability in mouse plasma assessed as half-life at 10 uM measured upto 48 hrs by UPLC-MS/MS analysis; format: ADME, cell-free; conditions: for t1/2: 48 h, 10 µM
[17] = Solubility of compound at pH 7.4 incubated for 18 hrs by UV-spectra analysis; format: physicochemical; conditions: buffer; for solubility: pH 7.4, 18 h; for solubility at 18 h: pH 7.4
[18] = Apparent permeability across apical to basolateral side in MDCK-II cells at 10 micromol/L incubated for 1 hrs by UPLC/MS analysis; format: ADME, cell-based, Canis lupus familiaris; conditions: dog, dose 10 µmol/L; for Papp: mdck-ii, 1 h, 10 µM
[19] = Apparent permeability across basolateral to apical side in MDCK-II cells at 10 micromol/L incubated for 1 hrs by UPLC/MS analysis; format: ADME, cell-based, Canis lupus familiaris; conditions: dog, dose 10 µmol/L; for Papp: mdck-ii, 1 h, 10 µM
[20] = Metabolic stability in mouse liver microsomes assessed as half-life at 10 uM measured upto 4 hrs in presence of NADPH by UPLC-MS/MS analysis; format: ADME, Microsome; conditions: for t1/2: microsomes, 4 h, 10 µM
[21] = Metabolic stability in pooled human liver microsomes assessed as half-life at 10 uM measured upto 4 hrs in presence of NADPH by UPLC-MS/MS analysis; format: ADME, Microsome
[22] = Metabolic stability in CD1 mouse hepatocytes assessed as half-life; format: ADME, cell-based, Hepatocyte
[23] = Oral bioavailability in female CD-1 mouse at 10 mg/kg administered as 5% v/v NMP, 5% v/v solutol HS-15 and 70% v/v normal saline formulation and measured after 24 hrs; format: ADME, organism-based; conditions: in vivo
[24] = AUClast in female CD-1 mouse at 3 mg/kg, iv administered as 5% v/v NMP, 5% v/v solutol HS-15 and 70% v/v normal saline formulation and measured after 24 hrs; format: ADME, organism-based; conditions: in vivo
[25] = Cmax in female CD-1 mouse at 3 mg/kg, iv administered as 5% v/v NMP, 5% v/v solutol HS-15 and 70% v/v normal saline formulation and measured after 24 hrs; format: ADME, organism-based; conditions: in vivo
[26] = Half-life in female CD-1 mouse at 3 mg/kg, iv administered as 5% v/v NMP, 5% v/v solutol HS-15 and 70% v/v normal saline formulation and measured after 24 hrs; format: ADME, organism-based; conditions: in vivo
[27] = Volume of distribution at steady state in female CD-1 mouse at 3 mg/kg, iv administered as 5% v/v NMP, 5% v/v solutol HS-15 and 70% v/v normal saline formulation and measured after 24 hrs; format: ADME, organism-based; conditions: in vivo
[28] = AUClast in female CD-1 mouse at 10 mg/kg, po administered as 5% v/v NMP, 5% v/v solutol HS-15 and 70% v/v normal saline formulation and measured after 24 hrs; format: ADME, organism-based; conditions: in vivo
[29] = Cmax in female CD-1 mouse at 10 mg/kg, po administered as 5% v/v NMP, 5% v/v solutol HS-15 and 70% v/v normal saline formulation and measured after 24 hrs; format: ADME, organism-based; conditions: in vivo
[30] = Metabolic stability in human hepatocytes assessed as half-life; format: ADME, cell-based, Hepatocyte
[31] = test system: MOLM-13; assay: Downregulation of CK1alpha protein level in human MOLM-13 cells at 1 uM measured after 4 hrs by TMT-proteomic analysis; format: functional, cell-based
[32] = AUClast in female CD-1 mouse at 3 mg/kg, iv administered as 5% v/v NMP, 5% v/v solutol HS-15, 20% PEG 400 and 70% v/v normal saline formulation and measured after 24 hrs; format: ADME, organism-based; conditions: in vivo
[33] = Half-life in female CD-1 mouse at 3 mg/kg, iv administered as 5% v/v NMP, 5% v/v solutol HS-15, 20% PEG 400 and 70% v/v normal saline formulation and measured after 24 hrs; format: ADME, organism-based; conditions: in vivo
[34] = Volume of distribution at steady state in female CD-1 mouse at 3 mg/kg, iv administered as 5% v/v NMP, 5% v/v solutol HS-15, 20% PEG 400 and 70% v/v normal saline formulation and measured after 24 hrs; format: ADME, organism-based; conditions: in vivo
[35] = AUClast in female CD-1 mouse at 10 mg/kg, po administered as 5% v/v NMP, 5% v/v solutol HS-15, 20% PEG 400 and 70% v/v normal saline formulation and measured after 24 hrs; format: ADME, organism-based; conditions: in vivo
[36] = Oral bioavailability in female CD-1 mouse at 10 mg/kg administered as 5% v/v NMP, 5% v/v solutol HS-15, 20% PEG 400 and 70% v/v normal saline formulation and measured after 24 hrs; format: ADME, organism-based; conditions: in vivo
[37] = Cmax in female CD-1 mouse at 3 mg/kg, iv administered as 5% v/v NMP, 5% v/v solutol HS-15, 20% PEG 400 and 70% v/v normal saline formulation and measured after 24 hrs; format: ADME, organism-based; conditions: in vivo
[38] = Cmax in female CD-1 mouse at 10 mg/kg, po administered as 5% v/v NMP, 5% v/v solutol HS-15, 20% PEG 400 and 70% v/v normal saline formulation and measured after 24 hrs; format: ADME, organism-based; conditions: in vivo

Row | SMILES | Emax [1] [%] | DC50 [2] [nM] | Emax [3] [%] | DC50 [4] [nM] | Activity [5] [µM] | fold change (FC) [6] | pEC50 [7] | fold change (FC) [8] | pEC50 [9] | Activity [10] [h⁻¹] | pIC50 [11] | Activity [12] | Activity [13] | Activity [14] | t1/2 [15] [h] | t1/2 [16] [h] | solubility [17] [µM] | Papp [18] [×10⁻⁶ cm/s] | Papp [19] [×10⁻⁶ cm/s] | t1/2 [20] [h] | further results
1 | O=C1CCC(N2Cc3cc(NC(=O)c4ccc(F)cc4)ccc3C2=O)C(=O)N1 (stereo not drawn) | 88 | 10 | 12 | > 10000 | 2.1 | 11 | 6.75 | 4 | 6.19 | 1.2 | 7.09 | inactive | Non-Toxic | Non-Toxic | 10 | 9 | 30 (≈ 11.4 µg/mL) | 0.2 | 0.5 | > 10 | t1/2 [21]: > 10 h
2 | O=C1CCC(N2Cc3cc(CNC(=O)c4ccc(F)cc4)ccc3C2=O)C(=O)N1 (stereo not drawn) | 23 | > 10000 | 57 | 80 | 1.4 | 3 | 6.23 | 10 | 7.46 | 0.1 | < 5.00 | inactive | Non-Toxic | Non-Toxic |  |  |  |  |  |  | 
3 | Cc1ccc2c(Nc3ccc4c(c3)CN(C3CCC(=O)NC3=O)C4=O)noc2c1 (stereo not drawn) | 94 | 1 |  |  |  |  |  |  |  | 3.5 | 7.49 |  |  |  |  |  |  |  |  |  | half-life at 10 µM [16]: 31 h; solubility at 18 h [17]: 7 µM (≈ 2.73 µg/mL); Papp A→B at 1 h, 10 µM ([18]; MDCK): 3 ×10⁻⁶ cm/s; Papp B→A at 1 h, 10 µM ([19]; MDCK): 2.2 ×10⁻⁶ cm/s; half-life at 10 µM ([20]; liver microsomes): > 10 h; half-life ([22]; CD1, mouse): > 3.6 h
4 | O=C1CCC(N2Cc3cc(Nc4noc5cc(F)ccc45)ccc3C2=O)C(=O)N1 (stereo not drawn) | 95 | 4 |  |  |  |  |  |  |  | 3.5 | 7.68 |  |  |  |  | 17 | 26 (≈ 10.3 µg/mL) | 19.7 | 10.4 | > 10 | F [23]: 10%; AUClast [24]: 911 ng·h/mL; Cmax [25]: 4240 ng/mL; t1/2 [26]: 1.98 h; Vdss [27]: 1.34 L/kg; AUClast [28]: 306 ng·h/mL; Cmax [29]: 330 ng/mL; t1/2 [30]: > 3.6 h
5 | O=C1CCC(N2Cc3cc(Nc4noc5ccccc45)ccc3C2=O)C(=O)N1 (stereo not drawn) | 95 | 1 |  |  |  |  |  |  |  | 3.5 | 7.89 |  |  |  | 8.5 | 25 |  | 24.5 | 26.2 | > 10 | Activity [31]: Active; solubility at 18 h [17]: 36 µM (≈ 13.5 µg/mL); t1/2 [21]: > 10 h; AUClast [32]: 832 ng·h/mL; t1/2 [33]: 0.35 h; Vdss [34]: 1.11 L/kg; AUClast [35]: 264 ng·h/mL; F [36]: 9.5%; Cmax [37]: 2700 ng/mL; Cmax [38]: 207 ng/mL; t1/2 [30]: > 3.6 h; t1/2 ([22]; mouse): > 3.6 h
